Structures can show the parent of a compound that is named as a salt.
Tested on: TNF synthesis in human PBMC
Assay: Human PBMC TNF Synthesis Assay
Assay type: cell-based
Settings: LPS-stimulated human PBMC, overnight incubation, TNF ELISA; read-out: TNF inhib.
Method: Human PBMC TNF Synthesis Assay
Human PBMC were obtained by from a healthy human donor leuko pak. Typically, all donors were pre-screened for STD, HIV and have been given a physical by a physician. One to two ampoules were thawed at 37° C. and then resuspended in 45 to 85 mL of RPMI+10% FBS to a final concentration of 2.5×10^6 cells/mL. Resuspended cells were filtered to remove any large clumps.
Prepare compounds for addition to cells: All compounds were DMSO stocks at 20 mM. Working stock for cell testing were prepared as 4× concentrated material in RPMI+10% FBS. Compounds were added to a polypropylene block and then diluted with the appropriate amount of RPMI+10% FBS. Typically 2.6 μL of 20 mM stock was diluted to 650 μL final volume to yield an 80 μM starting concentration in the stocks. RPMI was added to DMSO stock by pipetting into the tube or block. The compounds were then serial diluted with RPMI+10% FBS. The final DMSO concentrations were not greater than 0.5% in the assay.
Compounds were added to the cells as 4× working stock. 50 μL of compound was prepared above is added to the cells and re-equilibrated in a humidified 5% CO2 incubator at 37° C. for 30 minutes.
A stock of LPS was prepared using RPMI+10% FBS. To prepare the stock, 2.8 μL of LPS (5 mg/mL; Sigma Cat #L3024) was added to 35 mL of media. 50 μL of the LPS in media was added to the cells. Control cultures without LPS received only RPMI+10% FBS. After an overnight incubation at 37° C., the cell culture supernatant was harvested and stored in a polypropylene 96 well plate.
Samples were tested for TNF as per the manufacturer's instructions (TNF ELISA; R&D Systems, Cat #DY210). The samples were serially diluted with PBS+1% BSA to the appropriate dilution condition for the cell prep, typically a 1:4 or 1:6 dilution.

Compound | IC50 [µM]
COc1cccc2c1ncc1c(=O)n(-c3cccc(Cl)c3)c(=O)n([C@H]3CCNC3)c12 [Example 117, (S)-3-(3-Chloro-phenyl)-7-methoxy-1-pyrrolidin-3-yl-1H-pyrimido[5,4-c]quinoline-2,4-dione.dihydrochloride] | 1
COc1cccc2c1ncc1c(=O)n(-c3ccc4c(c3)OCO4)c(=O)n(C3CCNCC3)c12 [Example 108, 3-Benzo[1,3]dioxol-5-yl-7-methoxy-1-piperidin-4-yl-1H-pyrimido[5,4-c]quinoline-2,4-dione.dihydrochloride] | 0.45
CCn1c(=O)c2cnc3c(Cl)cccc3c2n(C2CCCC2)c1=O [Example 30, 7-Chloro-1-cyclopentyl-3-ethyl-1H-pyrimido[5,4-c]quinoline-2,4-dione] | 2.5
CCn1c(=O)c2cnc3c(OC)cccc3c2n(C(C)C)c1=O [Example 37, 3-Ethyl-1-isopropyl-7-methoxy-1H-pyrimido[5,4-c]quinoline-2,4-dione] | 20
COc1cccc2c1ncc1c(=O)n(-c3cccc(Cl)c3)c(=O)n(C3CCN(S(=O)(=O)N(C)C)CC3)c12 [Example 94, 4-[3-(3-Chloro-phenyl)-7-methoxy-2,4-dioxo-3,4-dihydro-2H-pyrimido[5,4-c]quinolin-1-yl]-piperidine-1-sulfonic acid dimethylamide] | 0.0004
COc1cccc2c1ncc1c(=O)n(-c3cccc(Cl)c3)c(=O)n(C3CCN(C(=O)c4ccccc4)CC3)c12 [Example 91, 1-(1-Benzoyl-piperidin-4-yl)-3-(3-chloro-phenyl)-7-methoxy-1H-pyrimido[5,4-c]quinoline-2,4-dione] | 0.001
CCC(C)n1c(=O)c2cnc3c(OC)cccc3c2n(C2CCCC2)c1=O (centres unmarked) [Example 38, 3-sec-Butyl-1-cyclopentyl-7-methoxy-1H-pyrimido[5,4-c]quinoline-2,4-dione] | 0.45
COc1cccc2c1ncc1c(=O)n(-c3cccc(Cl)c3)c(=O)n(C3CCN(S(=O)(=O)c4ccccc4)CC3)c12 [Example 95, 1-(1-Benzenesulfonyl-piperidin-4-yl)-3-(3-chloro-phenyl)-7-methoxy-1H-pyrimido[5,4-c]quinoline-2,4-dione] | 0.001
CCOC(=O)Cn1c(=O)c2cnc3c(OC)cccc3c2n(C2CCCC2)c1=O [Example 46, (1-Cyclopentyl-7-methoxy-2,4-dioxo-1,4-dihydro-2H-pyrimido[5,4-c]quinolin-3-yl)-acetic acid ethyl ester] | 1
COc1cccc2c1ncc1c(=O)n(C)c(=O)n(C3CCCC3)c12 [Example 48, 1-Cyclopentyl-7-methoxy-3-methyl-1H-pyrimido[5,4-c]quinoline-2,4-dione] | 1.4
COc1cccc2c1ncc1c(=O)n(-c3cccc(Cl)c3)c(=O)n([C@@H]3CCN(C(=O)OC(C)(C)C)C3)c12 [Example 113, 3-[(R)-3-(3-Chloro-phenyl)-7-methoxy-2,4-dioxo-3,4-dihydro-2H-pyrimido[5,4-c]quinolin-1-yl]-pyrrolidine-1-carboxylic acid tert-butyl ester] | 0.0003
COc1cccc2c1ncc1c(=O)n(-c3cccc(Cl)c3)c(=O)n([C@H]3CC[C@H](C(=O)O)CC3)c12 [Example 103, Trans-4-[3-(3-Chloro-phenyl)-7-methoxy-2,4-dioxo-3,4-dihydro-2H-pyrimido[5,4-c]quinolin-1-yl]-cyclohexanecarboxylic acid.hydrochloride] | 0.001
CCCCn1c(=O)n(CC)c(=O)c2cnc3c(OC)cccc3c21 [Example 17, 1-Butyl-3-ethyl-7-methoxy-1H-pyrimido[5,4-c]quinoline-2,4-dione] | 0.39
COc1cccc2c1ncc1c(=O)n(-c3cccc(Cl)c3)c(=O)n([C@H]3CC[C@H](NS(C)(=O)=O)CC3)c12 [Example 127, N-{4-[(S)-3-(3-Chloro-phenyl)-7-methoxy-2,4-dioxo-3,4-dihydro-2H-pyrimido[5,4-c]quinolin-1-yl]-trans-cyclohexyl}-methanesulfonamide] | 0.006
COc1cccc2c1ncc1c(=O)n(-c3ccc(C)cc3)c(=O)n(C3CCCC3)c12 [Example 55, 1-Cyclopentyl-7-methoxy-3-p-tolyl-1H-pyrimido[5,4-c]quinoline-2,4-dione] | 0.163
COc1cccc2c1ncc1c(=O)n(-c3cccc(Cl)c3)c(=O)n(C3CCNCC3)c12 [Example 89, 3-(3-Chloro-phenyl)-7-methoxy-1-piperidin-4-yl-1H-pyrimido[5,4-c]quinoline-2,4-dione.dihydrochlode] | 0.005

Compound | IC50 [µM]
COc1cccc2c1ncc1c(=O)n(-c3cccc(Cl)c3)c(=O)n(C3CCCC3)c12 [Example 73, 3-(3-Chloro-phenyl)-1-cyclopentyl-7-methoxy-1H-pyrimido[5,4-c]quinoline-2,4-dione] | 0.009
COc1cccc2c1ncc1c(=O)n(-c3cccc(Cl)c3)c(=O)n([C@@H]3CCNC3)c12 [Example 114, (R)-3-(3-Chloro-phenyl)-7-methoxy-1-pyrrolidin-3-yl-1H-pyrimido[5,4-c]quinoline-2,4-dione.dihydrochloride] | 0.031
COc1cccc2c1ncc1c(=O)n(-c3cccc(Cl)c3)c(=O)n([C@H]3CCN(C(=O)OC(C)(C)C)C3)c12 [Example 116, 3-[(S)-3-(3-Chloro-phenyl)-7-methoxy-2,4-dioxo-3,4-dihydro-2H-pyrimido[5,4-c]quinolin-1-yl]-pyrrolidine-1-carboxylic acid tert-butyl ester] | 0.002
COc1cccc2c1ncc1c(=O)n(-c3ccc4c(c3)OCCO4)c(=O)n(C3CCCC3)c12 [Example 120, 1-Cyclopentyl-3-(2,3-dihydro-benzo[1,4]dioxin-6-yl)-7-methoxy-1H-pyrimido[5,4-c]quinoline-2,4-dione] | 0.24
CCn1c(=O)c2cnc3c(OC)cccc3c2n(C2CCCC2)c1=O [Example 1, 1-cyclopentyl-3-ethyl-7-methoxy-1H-pyrimido[5,4-c]quinoline-2,4-dione] | 0.18
CCn1c(=O)c2cnc3c(C(C)C)cccc3c2n(C2CCCC2)c1=O [Example 33, 1-Cyclopentyl-3-ethyl-7-isopropyl-1H-pyrimido[5,4-c]quinoline-2,4-dione] | 20
COC(=O)N1CCC(n2c(=O)n(-c3cccc(Cl)c3)c(=O)c3cnc4c(OC)cccc4c32)CC1 [Example 124, 4-[3-(3-Chloro-phenyl)-7-methoxy-2,4-dioxo-3,4-dihydro-2H-pyrimido[5,4-c]quinolin-1-yl]-piperidine-1-carboxylic acid methyl ester] | 50
COc1cccc2c1ncc1c(=O)n(-c3ccccc3)c(=O)n(C3CCCC3)c12 [Example 39, 1-Cyclopentyl-7-methoxy-3-phenyl-1H-pyrimido[5,4-c]quinoline-2,4-dione] | 1.3
CCNC(=O)N1CCC(n2c(=O)n(-c3cccc(Cl)c3)c(=O)c3cnc4c(OC)cccc4c32)CC1 [Example 97, 4-[3-(3-Chloro-phenyl)-7-methoxy-2,4-dioxo-3,4-dihydro-2H-pyrimido[5,4-c]quinolin-1-yl]-piperidine-1-carboxylic acid ethylamide] | 0.0006
COc1cccc2c1ncc1c(=O)n(-c3cccc(Cl)c3)c(=O)n(C3CCN(C(=O)OC(C)(C)C)CC3)c12 [Example 88, 4-[3-(3-Chloro-phenyl)-7-methoxy-2,4-dioxo-3,4-dihydro-2H-pyrimido[5,4-c]quinolin-1-yl]-piperidine-1-carboxylic acid tert-butyl ester] | 0.001
CCCc1cccc2c1ncc1c(=O)n(CC)c(=O)n(C3CCCC3)c12 [Example 32, 1-Cyclopentyl-3-ethyl-7-propyl-1H-pyrimido[5,4-c]quinoline-2,4-dione] | 2.6
COc1cccc2c1ncc1c(=O)n(-c3cccc(C)c3)c(=O)n(C3CCC(C)CC3)c12 (centres unmarked) [Example 78, 7-Methoxy-1-(4-methyl-cyclohexyl)-3-m-tolyl-1H-pyrimido[5,4-c]quinoline-2,4-dione] | 0.001
COc1cccc2c1ncc1c(=O)n(-c3cccc(Cl)c3)c(=O)n(CC3CCN(S(C)(=O)=O)CC3)c12 [Example 126, 3-(3-Chloro-phenyl)-1-(1-methanesulfonyl-piperidin-4-ylmethyl)-7-methoxy-1H-pyrimido[5,4-c]quinoline-2,4-dione] | 0.002
COc1cccc2c1ncc1c(=O)n(-c3cccc(Cl)c3)c(=O)n(C3CCC(F)(F)CC3)c12 [Example 87, 3-(3-Chloro-phenyl)-1-(4,4-difluoro-cyclohexyl)-7-methoxy-1H-pyrimido[5,4-c]quinoline-2,4-dione] | 0.002
COc1cccc2c1ncc1c(=O)n(-c3cccc(C)c3)c(=O)n(C3CCCC3)c12 [Example 54, 1-Cyclopentyl-7-methoxy-3-m-tolyl-1H-pyrimido[5,4-c]quinoline-2,4-dione] | 0.006
COc1cccc2c1ncc1c(=O)n(-c3cc(C)cs3)c(=O)n(C3CCCC3)c12 [Example 51, 1-Cyclopentyl-7-methoxy-3-(4-methyl-thiophen-2-yl)-1H-pyrimido[5,4-c]quinoline-2,4-dione] | 0.03

— US10085990B2, “Tricyclic compounds as modulators of TNF-α synthesis and as PDE4 inhibitors” (vTv Therapeutics LLC, priority 2008, dated 2018)
